Like-named read-outs stand apart in the source and are kept apart here.
Tests used:
[1] = system: Pseudomonas aeruginosa (psae); assay: Example 3: colony color on chromogenic TSA II with 5% sheep blood (chromogen in medium); format: cell-based; settings: for Colony Color: CO2, 21 h
[2] = system: Branhamella catarrhalis (brca); assay: as above; format: cell-based; settings: for Colony Color: CO2, 21 h
[3] = system: N. gonorrhoeae 35201; assay: Example 1: growth and colony color on plates surface-spread with chromogen; format: cell-based; settings: Substrate on Choclate II Agar; N. gono. 35201
[4] = system: Gardnerella vaginalis 14019; assay: as above; format: cell-based; settings: Summary of Table I; G. vaginalis 14014
[5] = system: S pyogenes (stpy); assay: Example 3: colony color on chromogenic TSA II with 5% sheep blood (chromogen in medium); format: cell-based; settings: for Colony Color: 21 h
[6] = system: milu 9341; assay: as above; format: cell-based; settings: CO2, 21 h
[7] = system: S. milleri (stmi); assay: as above; format: cell-based; settings: for Colony Color: stmi 6249, 21 h
[8] = system: E. coli (non-O157) (esco); format: cell-based
[9] = system: Streptococcus agalactiae (stag); assay: Example 3: colony color on chromogenic TSA II with 5% sheep blood (chromogen in medium); format: cell-based
[10] = system: Staphylococcus Coag Neg (step); assay: as above; format: cell-based; settings: 21 h
[11] = system: Entercoccus faecalis (enfa); assay: as above; format: cell-based
[12] = system: Salmonella spp. (sasp); format: cell-based; settings: for Colony Color: CO2, 21 h
[13] = system: E. coli 25922; assay: Example 2: effect of incubation conditions on colony color formation; format: cell-based, Escherichia coli; settings: 0.004 g/plate
[14] = system: E. faecium (enfu); assay: Example 3: colony color on chromogenic TSA II with 5% sheep blood (chromogen in medium); format: cell-based
[15] = system: S. pneumoniae (stpn); assay: as above; format: cell-based
[16] = system: Citrobacter freundii (cifr); assay: as above; format: cell-based; settings: for Colony Color: CO2, 21 h
[17] = system: Serratia marcescens (sema); assay: as above; format: cell-based
[18] = system: Candida albicans (caal); assay: as above; format: cell-based; settings: for Colony Color: caal 10231, 24 h
[19] = system: Escherichia coli 25922; assay: Example 1: growth and colony color on plates surface-spread with chromogen; format: cell-based; settings: E. coli 25922
[20] = system: Streptococcus pneumoniae 6303; assay: as above; format: cell-based; settings: TSA II 5SB; S. pneu: 6303
[21] = system: Staphylococcus aureus (stau); assay: Example 3: colony color on chromogenic TSA II with 5% sheep blood (chromogen in medium); format: cell-based
[22] = chromogenic TSA II with 5% Sheep Blood, 0.1 g/l, 3 strains tested
[23] = chromogenic TSA II with 5% Sheep Blood, 0.1 g/l, 2 strains tested
[24] = chromogenic TSA II with 5% Sheep Blood, 0.1 g/l, 6 strains tested
[25] = chromogenic TSA II with 5% Sheep Blood, 0.1 g/l, 1 strain tested

SMILES: OC[C@H]1O[C@@H](Oc2c[nH]c3ccc(Br)c(Cl)c23)[C@H](O)[C@@H](O)[C@H]1O [X-Gal, 5-Br-4-Cl-3-indolyl-β-D-galactopyranoside]
- Colony Color (Summary) [1, 22]: 0
- Colony Color ([1]; psae 9027): 0
- Colony Color ([1]; psae 15442): 0
- Colony Color ([1]; psae 33607): 0
- Colony Color ([2]; brca 25238): 0
- Colony Color ([2]; brca 25240): 0
- Colony Color (Summary) [2, 23]: 0
- Growth [3]: <
- Substrates Producing Growth Inhibition [4]: X-Gal
- Colony Color (Summary) [5, 24]: 0
- Colony Color ([5]; stpy 1027, CO2): 0
- Colony Color ([5]; stpy 1028, CO2): 0
- Colony Color ([5]; stpy 1029, CO2): 0
- Colony Color ([5]; stpy 1030, CO2): 0
- Colony Color ([5]; stpy 19615, CO2): 0
- Colony Color ([5]; stpy 19615, air): 0
- Colony Color ([5]; stpy 49117, CO2): 0
- Colony Color ([5]; stpy 49117, air): 0
- Colony Color ([5]; stpy 51339, CO2): 0
- Colony Color ([5]; stpy 51339, air): 0
- Colony Color [6]: 0
- Colony Color (Summary) [7, 23]: 0
- Colony Color ([7]; CO2): 0
- Colony Color ([7]; air): 0
- Colony Color (Summary) [8, 22]: +
- Colony Color ([8]; esco 33605, CO2, 21 h): gb
- Colony Color (Summary) [9, 22]: 0
- Colony Color ([9]; stag 4768, CO2, 21 h): 0
- Colony Color ([9]; stag 4768, air, 21 h): 0
- Colony Color ([9]; stag 12386, CO2, 21 h): 0
- Colony Color ([9]; stag 12386, CO2, 24 h): 0
- Colony Color ([9]; stag 12386, air, 24 h): 0
- Colony Color ([10]; step 12228, CO2): 0
- Colony Color ([10]; step 12228, air): 0
- Colony Color ([10]; step cdc1, CO2): 0
- Colony Color ([10]; step cdc1, air): 0
- Colony Color ([10]; step cdc2, CO2): 0
- Colony Color ([10]; step cdc2, air): 0
- Colony Color ([10]; step cdc4, CO2): 0
- Colony Color ([10]; step cdc4, air): 0
- Colony Color ([11]; enfa 597, CO2, 21 h): 0
- Colony Color ([11]; enfa 597, air, 21 h): 0
- Colony Color ([11]; enfa 10741, CO2, 21 h): gb
- Colony Color ([11]; enfa 10741, air, 21 h): lgb
- Colony Color ([11]; enfa 12953, CO2, 21 h): 0
- Colony Color ([11]; enfa 12953, air, 21 h): 0
- Colony Color ([11]; enfa 14506, CO2, 21 h): lgb
- Colony Color ([11]; enfa 14506, air, 21 h): 0
- Colony Color ([11]; enfa 29212, CO2, 21 h): gb
- Colony Color ([11]; enfa 29212, CO2, 24 h): vlgb
- Colony Color ([11]; enfa 29212, air, 21 h): gb
- Colony Color ([11]; enfa 29212, air, 24 h): vlgb
- Colony Color (Summary) [12, 23]: 0
- Colony Color ([12]; saty 19430): 0
- Colony Color ([12]; satym 14028): 0
- Colony Color ([13]; Chocolate II Agar, 24 h, air): blue (d)
- Colony Color ([13]; TSA II 5% Sheep Blood, 24 h, air): blue (d)
- Colony Color ([13]; TSA II 5% Sheep Blood, 5 d, ANA): blue (d)
- Colony Color ([13]; TSA II 5% Sheep Blood, 5 d, MA): blue (d)
- Colony Color ([14]; E. faecium (ATCC 49032)): dark blue
- Colony Color (Summary) [14, 25]: +
- Colony Color ([14]; enfu 49032, CO2, 21 h): gb
- Colony Color ([14]; enfu 49032, air, 21 h): db
- Colony Color (Summary) [15, 24]: 0
- Colony Color ([15]; stpn 1259, CO2, 21 h): 0
- Colony Color ([15]; stpn 1260, CO2, 21 h): 0
- Colony Color ([15]; stpn 1628, CO2, 21 h): 0
- Colony Color ([15]; stpn 6303, CO2, 24 h): 0
- Colony Color ([15]; stpn 6303, air, 24 h): 0
- Colony Color ([15]; stpn 6305, CO2, 24 h): 0
- Colony Color ([15]; stpn 6305, air, 24 h): 0
- Colony Color (Summary) [16, 23]: +
- Colony Color ([16]; cifr 8454): gb
- Colony Color ([16]; cifr 33128): gb
- Colony Color (Summary) [17, 25]: +
- Colony Color ([17]; sema 13880, CO2, 21 h): gb
- Colony Color ([18]; CO2): 0
- Colony Color ([18]; air): 0
- Colony Color (Summary) [18, 23]: 0
- Color ([19]; Choc II): blue
- Substrates Producing Color ([19]; Summary of Table I): X-Gal
- Color ([19]; TSA II 5SB): blue
- Color ([19]; TSA Plain): blue
- Color [20]: light blue
- Colony Color (Summary) ([21]; chromogenic TSA II with 5% Sheep Blood, 0.1 g/l, 5 strains tested): 0
- Colony Color ([21]; stau 1006, CO2, 21 h): 0
- Colony Color ([21]; stau 1007, CO2, 21 h): 0
- Colony Color ([21]; stau 1008, CO2, 21 h): 0
- Colony Color ([21]; stau 1009, CO2, 21 h): 0
- Colony Color ([21]; stau 25923, CO2, 24 h): 0
- Colony Color ([21]; stau 25923, air, 24 h): 0
